Data on one molecule can be found in patent US20070048377A1, “Drug compositions containing controlled release hypromellose matrices” (priority 2005, published 2007).

Where a name gives a salt, the structure may show the parent alone.

Series [1] in a line: Viscosity investigation (Brookfield viscometer DV-II+). The class given is physicochemical. An excerpt:
• a. Dispersion Characterization • PVAP, HPMC, or Verapamil HCl was dispersed in 0.1N HCl or phosphate buffer, pH 6.8. Viscosity was characterized neat and in binary or tertiary mixtures. • b. Dry Blending Mixtures Characterization • i.

A short description of series [2]: Verapamil Hydrochloride and PVAP chemical interaction (precipitate on combining saturated methanol solutions). As to conditions: 50 grams of each combined. The series is classed as physicochemical. An excerpt: To determine that the influence on the drug release is not due to the chemical interaction between Verapamil HCL and PVAP, following investigation was made.
• a. Purpose—To determine if change in drug release is due to polymer drug interaction, where increasing PVAP would potentially cause decreased drug release due to binding with the drug. • b. Method— • i. Dissolved 20 grams of Verapamil Hydrochloride in 52 grams of methanol to form a saturated solution. • ii. Dissolved 10 grams of PVAP in 52 grams of methanol to form a saturated solution. • iii. A clear solution was obtained for each sample. • iv. 50 grams of each solution was combined and examined for the presence of a precipitate. • v. […] Conclusion • A lack of chemical interaction has been shown between PVAP and the drug which is contra to some of previously published studies on the interactions of Verapamil HCl with enteric polymers. It also rules out that the reduction of drug release by using PVAP is due to a chemical interaction with Verapamil HCl.

Consider `COc1ccc(CCN(C)CCCC(C#N)(c2ccc(OC)c(OC)c2)C(C)C)cc1OC` (stereo not drawn) [Verapamil HCl - 48% solution, Verapamil Hydrochloride], for which the Viscosity in series [1] (0.1N HCl) amounted to 50.8 cP; in series [1] (Phosphate Buffer, pH 6.8) it was 12.4 cP. Also, the “presence of a precipitate (chemical interaction with PVAP)” value in series [2] is on record as “no precipitate formed”.
